US12552825B2 (Zikani Therapeutics, Inc., priority 2019, dated 2026)
≈ marks a conversion by molar mass, not a printed value.

Columns and labels:
Type in all cases: cell-based
S. aureus MP-12 = assay: microbe, parasite or virus in culture; settings: Staphylococcus aureus, MP12, read-out: MIC S. aureus MP-12
E. coli MP-4 = assay: MIC determination by CLSI broth dilution, E. coli MP-4; settings: strain MP-4; for MIC: Escherichia coli, MP4, CLSI broth dilution; for MIC E. coli MP-4: CLSI broth dilution
K. pneumoniae MP-546 = assay: MIC determination by CLSI broth dilution, K. pneumoniae MP-546; settings: strain MP-546; for MIC: Klebsiella pneumoniae, MP546, CLSI broth dilution; for MIC K. pneumoniae MP-546: CLSI broth dilution
K. pneumoniae MP-648 = assay: MIC determination by CLSI broth dilution, K. pneumoniae MP-648; settings: strain MP-648; for MIC: Klebsiella pneumoniae, MP648, CLSI broth dilution; for MIC K. pneumoniae MP-648: CLSI broth dilution
P. aeruginosa MP-3 = assay: MIC determination by CLSI broth dilution, P. aeruginosa MP-3; settings: for MIC: Pseudomonas aeruginosa, MP3, strain MP-3; for MIC P aeruginosa MP-3: strain MP-3
A. baumannii MP-15 = assay: MIC determination by CLSI broth dilution, A. baumannii MP-15; settings: for MIC: Acinetobacter baumannii, MP15, strain MP-15, read-out: MIC A. baumanii MP-15; for MIC A. baumanii MP-15: strain MP-15

SMILES | MIC (S. aureus MP-12) [µg/mL] | MIC (E. coli MP-4) [µg/mL] | MIC (K. pneumoniae MP-546) [µg/mL] | MIC (K. pneumoniae MP-648) [µg/mL] | MIC (P. aeruginosa MP-3) [µg/mL] | MIC (A. baumannii MP-15) [µg/mL] | MIC E. coli MP-4 (E. coli MP-4) | MIC K. pneumoniae MP-546 (K. pneumoniae MP-546) | MIC K. pneumoniae MP-648 (K. pneumoniae MP-648) | MIC P aeruginosa MP-3 (P. aeruginosa MP-3) | MIC A. baumanii MP-15 (A. baumannii MP-15)
CCCN1CC(C[C@@H]2COC(=O)C(C)(C)C(=O)[C@H](C)[C@@H](O[C@@H]3O[C@H](C)C[C@H](N(C)C)[C@H]3O)[C@](C)(OC)C[C@@H](C)CN2C)C1 [Compound 1] | > 32 | < 4 | 4 to 32 (≈ 6.54 to 52.3 µM) | > 32 | > 32 | > 32 |  |  |  |  | 
C=C(C[C@@H]1COC(=O)C(C)(C)C(=O)[C@H](C)[C@@H](O[C@@H]2O[C@H](C)C[C@H](N(C)C)[C@H]2O)[C@](C)(OC)C[C@@H](C)CN1C)CN(CCC)CCC [Compound 2] | > 32 | 4 to 32 (≈ 6.12 to 48.9 µM) | > 32 | > 32 | > 32 | > 32 |  |  |  |  | 
CCN(C)CC[C@@H](O)[C@@H]1COC(=O)C(C)(C)C(=O)[C@H](C)[C@@H](O[C@@H]2O[C@H](C)C[C@H](N(C)C)[C@H]2O)[C@](C)(OC)C[C@@H](C)CN1C [Compound 3] | 4 to 32 (≈ 6.5 to 52 µM) | < 4 | < 4 | < 4 | > 32 | > 32 |  |  |  |  | 
CO[C@]1(C)C[C@@H](C)CN(C)[C@@H](CCCO)COC(=O)C(C)(C)C(=O)[C@H](C)[C@H]1O[C@@H]1O[C@H](C)C[C@H](N(C)C)[C@H]1O [Compound 4, (3S,6R,8R,9R,10R)-9-(((2S,3R,4S,6R)-4-(dimethylamino)-3-hydroxy-6-methyltetrahydro-2H-pyran-2-yl)oxy)-3-(3-hydroxypropyl)-8-methoxy-4,6,8,10,12,12-hexamethyl-1-oxa-4-azacyclotridecane-11,13-dione] | > 32 | < 4 | 4 to 32 (≈ 7.16 to 57.3 µM) | 4 to 32 (≈ 7.16 to 57.3 µM) | > 32 | > 32 |  |  |  |  | 
CO[C@]1(C)C[C@@H](C)CN(C)[C@@H](CCCN(C)C(C)(C)C)COC(=O)C(C)(C)C(=O)[C@H](C)[C@H]1O[C@@H]1O[C@H](C)C[C@H](N(C)C)[C@H]1O [Compound 7, (3S,6R,8R,9R,10R)-3-(3-(tert-butyl(methyl)amino)propyl)-9-(((2S,3R,4S,6R)-4-(dimethylamino)-3-hydroxy-6-methyltetrahydro-2H-pyran-2-yl)oxy)-8-methoxy-4,6,8,10,12,12-hexamethyl-1-oxa-4-azacyclotridecane-11,13-dione] | 4 to 32 (≈ 6.37 to 51 µM) | < 4 | 4 to 32 (≈ 6.37 to 51 µM) | < 4 | > 32 | > 32 |  |  |  |  | 
CO[C@]1(C)C[C@@H](C)CN(CC(C)C)[C@@H](CCCN(C)C(C)C)COC(=O)C(C)(C)C(=O)[C@H](C)[C@H]1O[C@@H]1O[C@H](C)C[C@H](N(C)C)[C@H]1O [Compound 8, (3S,6R,8R,9R,10R)-9-(((2S,3R,4S,6R)-4-(dimethylamino)-3-hydroxy-6-methyltetrahydro-2H-pyran-2-yl)oxy)-4-isobutyl-3-(3-(isopropyl(methyl)amino)propyl)-8-methoxy-6,8,10,12,12-pentamethyl-1-oxa-4-azacyclotridecane-11,13-dione] | < 4 | < 4 | 4 to 32 (≈ 6.1 to 48.8 µM) | 4 to 32 (≈ 6.1 to 48.8 µM) | > 32 | > 32 |  |  |  |  | 
CO[C@]1(C)C[C@@H](C)CN(C)[C@H]([C@@H](O)C2CCN(CC3CC3)CC2)COC(=O)C(C)(C)C(=O)[C@H](C)[C@H]1O[C@@H]1O[C@H](C)C[C@H](N(C)C)[C@H]1O [Compound 28] |  |  |  |  |  |  | + (values greater than 32 mg/L) | + (values greater than 32 mg/L) | + (values greater than 32 mg/L) | + (values greater than 32 mg/L) | + (values greater than 32 mg/L)
CO[C@]1(C)C[C@@H](C)CN(C)[C@H](C[C@H]2C[C@H](N(C)CC(C)C)C2)COC(=O)C(C)(C)C(=O)[C@H](C)[C@H]1O[C@@H]1O[C@H](C)C[C@H](N(C)C)[C@H]1O [Compound 134, (3R,6R,8R,9R,10R)-9-(((2S,3R,4S,6R)-4-(dimethylamino)-3-hydroxy-6-methyltetrahydro-2H-pyran-2-yl)oxy)-3-(((1r,3S)-3-(isobutyl(methyl)amino)cyclobutyl)methyl)-8-methoxy-4,6,8,10,12,12-hexamethyl-1-oxa-4-azacyclotridecane-11,13-dione] |  |  |  |  |  |  | +++ (values less than or equal to 4 mg/L) | +++ (values less than or equal to 4 mg/L) | +++ (values less than or equal to 4 mg/L) | + (values greater than 32 mg/L) | + (values greater than 32 mg/L)
C=C(C)C[C@]1(C)C(=O)OC[C@@H](CC2CCN(CCCCCCC)CC2)N(C)C[C@H](C)C[C@@](C)(OC)[C@H](O[C@@H]2O[C@H](C)C[C@H](N(C)C)[C@H]2O)[C@@H](C)C1=O [Compound 175] |  |  |  |  |  |  | +++ (values less than or equal to 4 mg/L) | ++ (values of greater than 4 mg/L and less than or equal to 32 mg/L) | + (values greater than 32 mg/L) | + (values greater than 32 mg/L) | + (values greater than 32 mg/L)
CO[C@]1(C)C[C@@H](C)CN(C)[C@](C)(C[C@H]2C[C@H](N(C)CC3CC3)C2)COC(=O)C(C)(C)C(=O)[C@H](C)[C@H]1O[C@@H]1O[C@H](C)C[C@H](N(C)C)[C@H]1O [Compound 197] | 4 to 32 (≈ 6.01 to 48.1 µM) | < 4 |  | 4 to 32 (≈ 6.01 to 48.1 µM) | > 32 | > 32 |  |  |  |  | 
CO[C@]1(C)C[C@@H](C)CN(C)[C@](C)(C[C@H]2C[C@H](N(C)C(C)C)C2)COC(=O)C(C)(C)C(=O)[C@H](C)[C@H]1O[C@@H]1O[C@H](C)C[C@H](N(C)C)[C@H]1O [Compound 198] | 4 to 32 (≈ 6.12 to 48.9 µM) | 4 to 32 (≈ 6.12 to 48.9 µM) |  | > 32 | > 32 | > 32 |  |  |  |  | 
CN[C@H]1C[C@H](C[C@]2(C)COC(=O)C(C)(C)C(=O)[C@H](C)[C@@H](O[C@@H]3O[C@H](C)C[C@H](N(C)C)[C@H]3O)[C@](C)(OC)C[C@@H](C)CN2C)C1 [Compound 199] | 4 to 32 (≈ 6.54 to 52.3 µM) | 4 to 32 (≈ 6.54 to 52.3 µM) |  | > 32 | > 32 | > 32 |  |  |  |  | 
CCN1C[C@H](C)C[C@@](C)(OC)[C@H](O[C@@H]2O[C@H](C)C[C@H](N(C)C)[C@H]2O)[C@@H](C)C(=O)C(C)(C)C(=O)OC[C@H]1[C@H](O)CCO [Compound 200, (3S,6R,8R,9R,10R)-3-((R)-1,3-dihydroxypropyl)-9-(((2S,3R,4S,6R)-4-(dimethylamino)-3-hydroxy-6-methyltetrahydro-2H-pyran-2-yl)oxy)-4-ethyl-8-methoxy-6,8,10,12,12-pentamethyl-1-oxa-4-azacyclotridecane-11,13-dione] | > 32 | 4 to 32 (≈ 6.79 to 54.3 µM) |  | > 32 | > 32 | > 32 |  |  |  |  | 
CO[C@]1(C)C[C@@H](C)CN(C)[C@H]([C@H](O)[C@@H](O)CO)COC(=O)C(C)(C)C(=O)[C@H](C)[C@H]1O[C@@H]1O[C@H](C)C[C@H](N(C)C)[C@H]1O [Compound 201] | > 32 | 4 to 32 (≈ 6.77 to 54.2 µM) |  | > 32 | > 32 | > 32 |  |  |  |  | 
CCCN(CCC)CC[C@@H](O)[C@@H]1COC(=O)C(C)(C)C(=O)[C@H](C)[C@@H](O[C@@H]2O[C@H](C)C[C@H](N(C)C)[C@H]2O)[C@](C)(OC)C[C@@H](C)CN1CC [Compound 223] | 4 to 32 (≈ 5.95 to 47.6 µM) | < 4 |  | 4 to 32 (≈ 5.95 to 47.6 µM) | > 32 | > 32 |  |  |  |  | 
CCN1C[C@H](C)C[C@@](C)(OC)[C@H](O[C@@H]2O[C@H](C)C[C@H](N(C)C)[C@H]2O)[C@@H](C)C(=O)C(C)(C)C(=O)OC[C@H]1[C@H](O)CCN(C)C(C)C [Compound 224] | 4 to 32 (≈ 6.21 to 49.7 µM) | < 4 |  | 4 to 32 (≈ 6.21 to 49.7 µM) | > 32 | > 32 |  |  |  |  | 
CCN1C[C@H](C)C[C@@](C)(OC)[C@H](O[C@@H]2O[C@H](C)C[C@H](N(C)C)[C@H]2O)[C@@H](C)C(=O)C(C)(C)C(=O)OC[C@H]1[C@H](O)CCN(C)CCO [Compound 225] | 4 to 32 (≈ 6.19 to 49.5 µM) | < 4 |  | 4 to 32 (≈ 6.19 to 49.5 µM) | > 32 | > 32 |  |  |  |  | 
CCN1C[C@H](C)C[C@@](C)(OC)[C@H](O[C@@H]2O[C@H](C)C[C@H](N(C)C)[C@H]2O)[C@@H](C)C(=O)C(C)(C)C(=O)OC[C@H]1[C@H](O)CCN(C1CC1)C1Cc2ccccc2C1 [Compound 226] | 4 to 32 (≈ 5.38 to 43 µM) | < 4 |  | 4 to 32 (≈ 5.38 to 43 µM) | > 32 | > 32 |  |  |  |  | 
CO[C@]1(C)C[C@@H](C)CN(C)[C@H]([C@](C)(O)CCN2CCCC2)COC(=O)C(C)(C)C(=O)[C@H](C)[C@H]1O[C@@H]1O[C@H](C)C[C@H](N(C)C)[C@H]1O [Compound 227] | 4 to 32 (≈ 6.23 to 49.9 µM) | 4 to 32 (≈ 6.23 to 49.9 µM) |  | > 32 | > 32 | > 32 |  |  |  |  | 
CO[C@]1(C)C[C@@H](C)CN(C)[C@H]([C@](C)(O)CCN(C)CCO)COC(=O)C(C)(C)C(=O)[C@H](C)[C@H]1O[C@@H]1O[C@H](C)C[C@H](N(C)C)[C@H]1O [Compound 228] | > 32 | 4 to 32 (≈ 6.19 to 49.5 µM) |  | < 4 | > 32 | > 32 |  |  |  |  | 
CCCN(CCC)CC[C@@](C)(O)[C@@H]1COC(=O)C(C)(C)C(=O)[C@H](C)[C@@H](O[C@@H]2O[C@H](C)C[C@H](N(C)C)[C@H]2O)[C@](C)(OC)C[C@@H](C)CN1C [Compound 229] | 4 to 32 (≈ 5.95 to 47.6 µM) | 4 to 32 (≈ 5.95 to 47.6 µM) |  | > 32 | > 32 | > 32 |  |  |  |  | 
